What was measured:
[1] = tested on: multiple myeloma cell line KMS11; assay: Cell Titer Glo proliferation and survival assay, KMS11 and other multiple myeloma cell lines; type: cell-based; conditions: Homo sapiens, KMS-11; single agent; ten multiple myeloma cell lines tested; read-out: IC50 against myeloma cell lines, single agent
Description: The results obtained here are representative of a total of ten multiple myeloma cell lines tested.

[2] = tested on: RPMI 8226.x1 multiple myeloma xenografts; assay: RPMI 8226.x1 multiple myeloma xenograft; type: in vivo, SCID Beige mice
Protocol: The efficacy of the combinations of the invention may be measured in vivo by implanting allografts or xenografts of cancer cells in rodents and treating the tumor-bearing animals with the combinations. Variable results are to be expected depending on the cell line, the presence or absence of certain mutations in the tumor cells, the sequence of administration of a formula I compound and chemotherapeutic agent, dosing regimen, and other factors. Subject mice were treated with drug(s) or control (Vehicle) and monitored over several weeks or more to measure the time to tumor doubling, log cell kill, and tumor inhibition.
Dosing of all cohorts commenced on Day 0 when the mean tumor volume of all cohorts was between about 100 to 200 cubic millimeters.

Nc1sc(-c2c(F)cccc2F)nc1C(=O)Nc1cnccc1N1CCC[C@H](N)C1 [Example 3, (S)-5-amino-N-(4-(3-aminopiperidin-1-yl)pyridin-3-yl)-2-(2,6-difluorophenyl)thiazole-4-carboxamide]
IC50 [1]: 100 to 500 nM | effect on tumor growth at the lowest dose ([2]; Compound 3 5 mg/kg po qd x21): trend toward accelerated tumor growth, though this trend was not statistically significant | tumor growth inhibition (TGI) ([2]; Compound 3 50 mg/kg po qd x21, day 27 vs vehicle): about 70%

Source: patent US8435976B2, “4-substituted pyridin-3-yl-carboxamide compounds and methods of use” (F. Hoffmann-La Roche, priority 2009, dated 2013)
